Data as given in patent US20050171116A1, “Enhancing the efficacy of tubercular drugs” (priority 2004, published 2005).

Tests used:
Format in all cases: cell-based, Mycobacterium Tuberculosis
Conditions in all cases: LJ medium, in vitro
[1] = system: Rifampicin-resistant strains of MTB
[2] = system: Isoniazid-Resistant strains of MTB
[3] = system: Multi-Drug-Resistant strains of MTB

Measured: antibacterial efficacy

Cc1c(C)c2c(c(C)c1O)CC[C@@](C)(CCC[C@H](C)CCC[C@H](C)CCCC(C)C)O2 [Factor Alpha tx, α-tocopherol]
effective: all assays above
